Assay type in all cases: biochemical
The target in assay [1] is human dipeptidylpeptidase 9 (hDPP9) (Homo sapiens (Human), UniProt Q86TI2). The assay is described as follows: hDPP9 inhibition assay. As to conditions: highest compound concentration 10 μM; n = 1. As to the method: Compounds were tested in a biochemical inhibition assay using human dipeptidylpeptidase 9 (hDPP9) enzyme (R&D, #5419-SE-010) and the substrate Gly-Pro-amino-methylcoumarin (Enzo #BML-P189-0005) at 10 μM FAC. The enzymatic reactions were conducted in duplicate at rt for 30 min in 50 μL assay buffer (50 mM Tris, pH 7.5, 0.1% BSA). Compound solutions (in DMSO) at 10 CR, 3-fold dilution series were prepared in assay buffer ten-fold higher than the final concentration, and 5 μL of the dilution was added to a 50 μL reaction so that the highest compound concentration was 10 μM FAC and the concentration of DMSO was 1% in all wells. The plates were read on a PHERAstarPLUS (BMG) using kinetic mode with excitation 340 nm and emission 460 nm. Data were analyzed in Graph Pad Prism. […] Raw data signals were normalized using 1% DMSO as 0% control and no enzyme as 100% inhibitor control.

In assay [2] the target is human dipeptidylpeptidase 7 (hDPP7) (Homo sapiens (Human), UniProt Q9UHL4). Briefly: hDPP7 inhibition assay. The note with it: highest compound concentration 10 μM; n = 1. As to the method: Compounds were tested in a biochemical inhibition assay using human dipeptidylpeptidase 7 (hDPP7) enzyme (BPS Bioscience, #80070) and the substrate Ala-Pro-amino-methylcoumarin (BPS Bioscience, #80305) at 10 μM FAC. The enzymatic reactions were conducted in duplicate at rt for 20 min in 50 μL assay buffer (10 mM Tris-HCl, pH 7.4, 10 mM MgCl2, 1 mM MnCl2). Compound solutions (in DMSO) at 10 CR, 3-fold dilution series were prepared in assay buffer ten-fold higher than the final concentration, and 5 μL of the dilution was added to a 50 μL reaction so that the highest compound concentration was 10 μM FAC and the concentration of DMSO was 1% in all wells. The plates were read on a PHERAstarPLUS (BMG) using kinetic mode with excitation 340 nm and emission 460 nm. Data were analyzed in Graph Pad Prism. Raw data signals were normalized using 1% DMSO as 0% control and no enzyme as 100% inhibitor control.

In assay [3] the target is human dipeptidylpeptidase 8 (hDPP8) (Homo sapiens (Human), UniProt Q6V1X1). The assay is described as follows: hDPP8 inhibition assay. The note with it: single concentration 10 μM; n = 1. How it is done:
Compounds were tested in a biochemical inhibition assay using human dipeptidylpeptidase 8 (hDPP8) enzyme (BPS Bioscience, #80800) and the substrate Gly-Pro-amino-methylcoumarin (Enzo #BML-P189-0005) at 10 μM FAC. The enzymatic reactions were conducted in duplicate at rt for 20 min in 50 μL assay buffer (50 mM Tris, pH 7.5, 0.1% BSA). Compound solutions (in DMSO), were prepared in assay buffer ten-fold higher than the final concentration, and 5 μL of the dilution was added to a 50 μL reaction so that the compound concentration was 10 μM FAC and the concentration of DMSO was 1% in all wells. The plates were read on a PHERAstarPLUS (BMG) using kinetic mode with excitation 340 nm and emission 460 nm. Data were analyzed in Graph Pad Prism. Raw data signals were normalized using 1% DMSO as 0% control and no enzyme as 100% inhibitor control.

Data on 1 compound can be found in patent US20230406840A1, “N-(2-(3-CYANO-2-AZABICYCLO[3.1.0]HEXAN-2-YL)-2-OXOETHYL)QUINOLINE-4-CARBOXAMIDES” (AstraZeneca AB, priority 2022, published 2023).

The IC50 is the midpoint of a concentration-inhibition curve. Read a high IC50 as weaker potency in that assay.

Where only a bound is given, the exact number is not on record here.

human dipeptidylpeptidase 8 (hDPP8), sequence (Q6V1X1 whole entry): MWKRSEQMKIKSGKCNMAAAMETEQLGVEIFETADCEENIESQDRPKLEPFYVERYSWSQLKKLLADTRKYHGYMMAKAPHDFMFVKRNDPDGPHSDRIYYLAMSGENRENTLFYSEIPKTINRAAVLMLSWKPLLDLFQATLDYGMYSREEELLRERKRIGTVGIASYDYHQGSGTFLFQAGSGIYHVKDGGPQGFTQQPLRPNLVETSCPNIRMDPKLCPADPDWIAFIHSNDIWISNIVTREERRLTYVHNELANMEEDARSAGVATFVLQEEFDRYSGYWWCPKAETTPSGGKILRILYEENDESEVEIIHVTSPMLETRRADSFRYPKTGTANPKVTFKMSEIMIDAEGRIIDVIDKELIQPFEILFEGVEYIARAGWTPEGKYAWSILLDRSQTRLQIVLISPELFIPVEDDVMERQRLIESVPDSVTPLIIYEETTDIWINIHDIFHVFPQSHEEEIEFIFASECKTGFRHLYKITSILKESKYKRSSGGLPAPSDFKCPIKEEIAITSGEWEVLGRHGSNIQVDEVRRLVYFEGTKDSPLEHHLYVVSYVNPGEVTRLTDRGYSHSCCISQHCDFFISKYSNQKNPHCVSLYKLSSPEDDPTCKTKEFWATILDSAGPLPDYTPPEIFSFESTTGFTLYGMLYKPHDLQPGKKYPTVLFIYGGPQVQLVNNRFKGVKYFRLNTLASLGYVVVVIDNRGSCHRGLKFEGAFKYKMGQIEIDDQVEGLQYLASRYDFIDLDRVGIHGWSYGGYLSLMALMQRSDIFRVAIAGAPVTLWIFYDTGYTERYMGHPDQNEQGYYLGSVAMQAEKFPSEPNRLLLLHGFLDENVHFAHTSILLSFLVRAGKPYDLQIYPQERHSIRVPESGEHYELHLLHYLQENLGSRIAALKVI
human dipeptidylpeptidase 9 (hDPP9), sequence (Q86TI2 whole entry): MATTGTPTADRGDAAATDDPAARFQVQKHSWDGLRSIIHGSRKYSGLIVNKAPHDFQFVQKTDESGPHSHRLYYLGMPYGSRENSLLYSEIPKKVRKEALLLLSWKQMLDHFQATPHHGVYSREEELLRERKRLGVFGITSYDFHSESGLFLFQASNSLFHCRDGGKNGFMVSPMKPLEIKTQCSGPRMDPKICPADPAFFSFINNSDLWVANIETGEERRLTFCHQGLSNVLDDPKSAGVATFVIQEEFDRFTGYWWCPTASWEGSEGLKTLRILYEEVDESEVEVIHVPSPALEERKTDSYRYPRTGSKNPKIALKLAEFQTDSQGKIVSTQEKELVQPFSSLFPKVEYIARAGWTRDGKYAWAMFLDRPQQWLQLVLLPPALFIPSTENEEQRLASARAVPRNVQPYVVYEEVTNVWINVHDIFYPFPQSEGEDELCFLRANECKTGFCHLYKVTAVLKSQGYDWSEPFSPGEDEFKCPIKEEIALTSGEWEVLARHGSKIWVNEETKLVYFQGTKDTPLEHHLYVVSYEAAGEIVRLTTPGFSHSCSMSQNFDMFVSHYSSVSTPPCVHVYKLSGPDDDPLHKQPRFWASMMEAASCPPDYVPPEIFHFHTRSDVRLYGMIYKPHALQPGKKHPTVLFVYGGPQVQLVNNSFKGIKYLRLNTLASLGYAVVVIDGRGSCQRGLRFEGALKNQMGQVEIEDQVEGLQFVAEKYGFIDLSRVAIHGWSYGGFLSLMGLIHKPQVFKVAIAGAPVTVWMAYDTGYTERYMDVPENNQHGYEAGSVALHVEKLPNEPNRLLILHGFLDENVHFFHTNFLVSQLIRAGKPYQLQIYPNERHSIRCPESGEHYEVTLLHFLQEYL

On to `Cc1ccc2c(C(=O)NCC(=O)N3[C@H](C#N)C[C@@H]4C[C@@H]43)ccnc2c1` [Example 20, N-(2-((1S,3S,5S)-3-Cyano-2-azabicyclo[3.1.0]hexan-2-yl)-2-oxoethyl)-7-methylquinoline-4-carboxamide], for which the IC50 in assay [1] and in assay [2] was over 10 nM in each case. Also, the “hDPP8 Activity at Compound Concentration 10 μM” value in assay [3] is “Not Active”.
